Results on 14 compounds are retold here after US12349706B2, “Compositions and methods related to excipients and cannabinoid formulations” (Natural Extraction Systems, LLC, priority 2020, dated 2025).

Common to all, as to assay type: in vivo
For test [1], the system named is Sabra mice. The experiment in a line: Zymosan-induced inflammatory paw swelling, measured with a caliper. The note with it: zymosan in left hind paw, paw swelling by caliper, 300 milligrams formulation (cannabinoid in propylene glycol, xylitol solid phase) in 15 milliliters water, oral gavage. Here is the method: (§1) The activity of formulations set forth in this disclosure is assayed in Sabra mice. 300 milligrams of a formulation is combined with 15 milliliters of water and administered by oral gavage. Each formulation comprises a liquid phase that contains propylene glycol and a solid phase that contains xylitol. The liquid phase contains a cannabinoid selected from CBD, THC, Δ8-THC, CBG, CBDV, THCV, Δ8-THCV, CBGV, CBC, CBN, tetrahydrocannabiphorol, perrottetinene, nabilone, parahexyl, HUM-217, and HU-331, which is dissolved in the propylene glycol, and controls lack any cannabinoid.
(§2) Zymosan is injected into the left hind paws of each mouse to induce pain, inflammation, and tumor necrosis factor (“TNF”) signaling. Inflammatory paw swelling is measured with a caliper. Pain is measured with a Von Frey hair aesthesiometer. Plasma TNF is measured […].

Test [2] relates to Sabra mice. Kind of test: Zymosan-induced paw pain, Von Frey hair aesthesiometer. The note with it: zymosan in left hind paw, 300 milligrams formulation (cannabinoid in propylene glycol, xylitol solid phase) in 15 milliliters water, oral gavage. Here is the method: as §1, §2
The subject of test [3] is tumor necrosis factor (“TNF”) signaling. Kind of test: Plasma TNF after zymosan injection, measured by HPLC. The settings on record: Sabra mice, zymosan in left hind paw, 300 milligrams formulation (cannabinoid in propylene glycol, xylitol solid phase) in 15 milliliters water, oral gavage. The method, then:
as §1, §2

Molecules are shown by their SMILES.

For the compound `CCCCCc1cc(O)c2c(c1)OC(C)(CCC=C(C)C)C=C2` (stereo not drawn) [CBC], the “reduction in inflammation relative to controls” value in the test with Sabra mice [1] is listed as “no detectable effect”. For the same compound, the “reduction in pain relative to controls” value with Sabra mice [2] was “no detectable effect”. The “reduction in TNF signaling relative to controls” value in test [3] was “no detectable effect”.
For `C=C(C)[C@@H]1CCC(C)=C[C@H]1c1c(O)cc(CCC)cc1O` [CBDV], the “reduction in inflammation relative to controls” value with Sabra mice [1] was “robust reduction”. Also, in the test with Sabra mice [2], the “reduction in pain relative to controls” value is “robust reduction”. In addition, the “reduction in TNF signaling relative to controls” value in test [3] is given as “robust reduction”.
`C=C(C)[C@@H]1CCC(C)=C[C@H]1c1c(O)cc(CCCCC)cc1O` [CBD]: the “reduction in inflammation relative to controls” value in the test with Sabra mice [1] is listed as “robust reduction”. Further, the “reduction in pain relative to controls” value in the test with Sabra mice [2] is recorded as “robust reduction”. In addition, the “reduction in TNF signaling relative to controls” value in test [3] is reported as “robust reduction”.
For the compound `CCCCCc1cc(O)c(C/C=C(\C)CCC=C(C)C)c(O)c1` [CBG], in the test with Sabra mice [1], the “reduction in inflammation relative to controls” value is given as “modest reduction”. Further, the “reduction in pain relative to controls” value in the test on Sabra mice [2] was “modest reduction”. In addition, the “reduction in TNF signaling relative to controls” value in test [3] was “modest reduction”.
For the compound `CCCCCc1cc(O)c2c(c1)OC(C)(C)c1ccc(C)cc1-2` [CBN], the “reduction in inflammation relative to controls” value with Sabra mice [1] is given as “modest reduction”. Besides, the “reduction in pain relative to controls” value with Sabra mice [2] is on record as “modest reduction”. The “reduction in TNF signaling relative to controls” value in test [3] is “modest reduction”.
For `C=C(C)[C@@H]1CCC(C)=C[C@H]1C1=C(O)C(=O)C(CCCCC)=CC1=O` [HU-331], in the test on Sabra mice [1], the “reduction in inflammation relative to controls” value was “robust reduction”. The “reduction in pain relative to controls” value with Sabra mice [2] is “robust reduction”. Moreover, the “reduction in TNF signaling relative to controls” value in test [3] is on record as “robust reduction”.
As for `CCCc1cc(O)c2c(c1)OC(C)(C)[C@@H]1CCC(C)=C[C@@H]21` [THCV], in the test with Sabra mice [1], the “reduction in inflammation relative to controls” value is “modest reduction”. The “reduction in pain relative to controls” value with Sabra mice [2] is “modest reduction”. For the same compound, the “reduction in TNF signaling relative to controls” value in test [3] is on record as “modest reduction”.
Regarding `CCCCCc1cc(O)c2c(c1)OC(C)(C)[C@@H]1CCC(C)=C[C@@H]21` [THC], the “reduction in inflammation relative to controls” value in the test with Sabra mice [1] is recorded as “modest reduction”. Further, the “reduction in pain relative to controls” value with Sabra mice [2] is “modest reduction”. In addition, the “reduction in TNF signaling relative to controls” value in test [3] is “modest reduction”.
Regarding `CCCCCCC(C)(C)c1cc(O)c2c(c1)OC(C)(C)C1CCC(=O)CC21` (stereo not drawn) [nabilone], the “reduction in inflammation relative to controls” value in the test with Sabra mice [1] is recorded as “modest reduction”. For the same compound, in the test with Sabra mice [2], the “reduction in pain relative to controls” value is “modest reduction”. The “reduction in TNF signaling relative to controls” value in test [3] is “modest reduction”.
As to `CCCCCCc1cc(O)c2c(c1)OC(C)(C)C1=C2CC(C)CC1` (stereo not drawn) [parahexyl], the “reduction in inflammation relative to controls” value in the test with Sabra mice [1] is listed as “modest reduction”. For the same compound, the “reduction in pain relative to controls” value in the test with Sabra mice [2] is given as “modest reduction”. The “reduction in TNF signaling relative to controls” value in test [3] is “modest reduction”.
With `CC1=C[C@H]2c3c(O)cc(CCc4ccccc4)cc3OC(C)(C)[C@H]2CC1` [perrottetinene], in the test on Sabra mice [1], the “reduction in inflammation relative to controls” value is recorded as “modest reduction”. Moreover, the “reduction in pain relative to controls” value in the test on Sabra mice [2] is given as “modest reduction”. In addition, in test [3], the “reduction in TNF signaling relative to controls” value was “modest reduction”.
With `CCCCCCCc1cc(O)c2c(c1)OC(C)(C)[C@@H]1CCC(C)=C[C@@H]21` [tetrahydrocannabiphorol], in the test on Sabra mice [1], the “reduction in inflammation relative to controls” value is given as “modest reduction”. In addition, the “reduction in pain relative to controls” value in the test with Sabra mice [2] was “modest reduction”. Moreover, the “reduction in TNF signaling relative to controls” value in test [3] is “modest reduction”.
In the case of `CCCc1cc(O)c2c(c1)OC(C)(C)[C@@H]1CC=C(C)C[C@@H]21` [Δ8-THCV], the “reduction in inflammation relative to controls” value in the test with Sabra mice [1] was “modest reduction”. In addition, the “reduction in pain relative to controls” value in the test on Sabra mice [2] is “modest reduction”. Further, the “reduction in TNF signaling relative to controls” value in test [3] was “modest reduction”.
For the compound `CCCCCc1cc(O)c2c(c1)OC(C)(C)[C@@H]1CC=C(C)C[C@@H]21` [Δ8-THC], the “reduction in inflammation relative to controls” value in the test on Sabra mice [1] is “modest reduction”. Further, in the test on Sabra mice [2], the “reduction in pain relative to controls” value is reported as “modest reduction”. Further, the “reduction in TNF signaling relative to controls” value in test [3] is listed as “modest reduction”.
